# Measured values from patent publication US20220017516A1, “LOX INHIBITORS” (THE INSTITUTE OF CANCER RESEARCH: ROYAL CANCER HOSPITAL, priority 2018, published 2022).
# Like-named read-outs stand apart in the source and are kept apart here.
# Experiments:
# [1] = target: T1, monoamine oxidase A (MAO-A) (Homo sapiens, UniProt P21397); assay: Amine oxidase activity assay (MAO-Glo), MAO-A; format: biochemical
# T1 construct: purchased Promega V1452
# T1 sequence (P21397 1-527): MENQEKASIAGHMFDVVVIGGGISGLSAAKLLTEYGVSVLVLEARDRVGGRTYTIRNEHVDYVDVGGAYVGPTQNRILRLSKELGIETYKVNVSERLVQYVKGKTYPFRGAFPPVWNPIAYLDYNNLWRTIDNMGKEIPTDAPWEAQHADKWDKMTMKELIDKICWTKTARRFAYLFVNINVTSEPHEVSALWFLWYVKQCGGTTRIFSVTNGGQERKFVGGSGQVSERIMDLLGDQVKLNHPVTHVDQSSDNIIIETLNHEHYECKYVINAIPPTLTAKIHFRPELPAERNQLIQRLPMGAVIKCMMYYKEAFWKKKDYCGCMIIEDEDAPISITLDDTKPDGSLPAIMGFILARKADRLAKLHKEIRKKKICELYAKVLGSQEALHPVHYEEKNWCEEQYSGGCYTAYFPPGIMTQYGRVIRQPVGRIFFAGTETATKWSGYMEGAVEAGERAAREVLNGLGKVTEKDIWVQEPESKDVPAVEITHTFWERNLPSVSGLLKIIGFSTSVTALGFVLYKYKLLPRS
# Method: (§1) The Promega MAO-Glo assay kit (V1402) was used to assess monoamine oxidase A (MAO-A) and monoamine oxidase B (MAO-B) activity. MAO substrate was prepared at 80 μM with the specific MAO-A/B reaction buffer. Overall, 0.5 μl test compound was added to 25 μl MAO substrate at 100, 30, 10, 3, 1, 0.3, 0.1, 0.03, 0.01 and 0.003 μM (final concentration) in a 96-well white, flat bottom plate. Overall, 25 μl of 1:520 dilution of MAO-A enzyme (Promega, V1452) or 25 μl of 1:52 dilution of MAO-B enzyme (Sigma, M7441) in specific MAO-A/B reaction buffer was added to each well (enzyme prepared at 2×final concentration) and plates were incubated for 1 h at room temperature. Finally, 50 μl per well luciferin detection reagent was added and plates were incubated for 20 min at room temperature, protected from light. Luminescence was measured with an integration time of 500 ms per well using a SpectaMax M5 plate reader and resulting IC50 values were calculated using GraphPad Prism software.
# (§2) In another setting, the DAO and MAO assays were performed in 384-well plates (Greiner) and test compound was added using a Labcyte Echo™ Acoustic Handler for the same final concentrations as in the 96-well setting. Luminescence was measured with BMG LABTECH PHERAstar FS plate reader.
# [2] = target: T2, monoamine oxidase B (MAO-B) (Homo sapiens, UniProt P27338); assay: Amine oxidase activity assay (MAO-Glo), MAO-B; format: biochemical
# T2 construct: purchased Sigma M7441
# T2 sequence (P27338 1-520): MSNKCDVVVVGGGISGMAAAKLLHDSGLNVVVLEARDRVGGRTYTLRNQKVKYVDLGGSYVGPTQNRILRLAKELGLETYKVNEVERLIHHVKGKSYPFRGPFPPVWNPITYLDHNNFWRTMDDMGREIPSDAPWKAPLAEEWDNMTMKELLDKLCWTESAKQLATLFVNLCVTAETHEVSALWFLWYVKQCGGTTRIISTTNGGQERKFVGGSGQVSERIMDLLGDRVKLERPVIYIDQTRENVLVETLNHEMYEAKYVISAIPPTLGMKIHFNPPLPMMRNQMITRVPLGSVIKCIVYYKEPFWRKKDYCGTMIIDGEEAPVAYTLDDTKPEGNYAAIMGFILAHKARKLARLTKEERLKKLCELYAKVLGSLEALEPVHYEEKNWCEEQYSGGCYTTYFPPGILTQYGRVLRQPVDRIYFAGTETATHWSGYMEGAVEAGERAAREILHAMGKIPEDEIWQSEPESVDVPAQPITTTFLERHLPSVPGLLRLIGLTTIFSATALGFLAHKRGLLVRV
# Method: as §1, §2
# LOX = target: T3, LOX (Mus musculus, UniProt P28301); assay: LOX activity in cysts assay (roGFP2 LOX biosensor in MDCK cysts); format: cell-based; settings: for inhibition at 10 µM: read-out: Cyst LOX @ 10 uM (% inhibition)
# T3 construct: Full length LOX cDNA was then PCR cloned into pEGFP-N1 (Clonetech), or biosensor vector proGFP2—N1; expressed in transfected cells; host or cells: MDCK cells grown as cysts on Matrigel
# T3 sequence (P28301 163-411): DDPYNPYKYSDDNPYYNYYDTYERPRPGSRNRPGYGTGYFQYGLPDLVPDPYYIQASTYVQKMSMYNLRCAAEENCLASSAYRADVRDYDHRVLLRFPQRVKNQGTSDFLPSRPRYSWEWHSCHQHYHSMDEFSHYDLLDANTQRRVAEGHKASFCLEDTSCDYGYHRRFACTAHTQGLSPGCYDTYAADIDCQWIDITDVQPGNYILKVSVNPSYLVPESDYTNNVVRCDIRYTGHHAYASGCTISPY
# Method: All cell lines used in this study were purchased from American Type Culture Collection (ATCC). Mycoplasma contamination was routinely monitored by PCR. Cells used were not found to be Mycoplasma positive. MDCK cell lines were cultured in Dulbecco's Modified Eagle Medium (DMEM) supplemented with 10% fetal bovine serum (FBS) and 1% Penicillin Streptomycin solution (Pen Strep). For GFP constructs transfection in MDCK cells, lipofectamine 3000 was used according to manufactures protocols. Cells were either selected with G418 (Life Technologies) at 5 mg/ml. All cell culture reagents were purchased from Life Technologies.
# To produce MDCK cysts, cells were cultured on Matrigel (Corning) with 2% Matrigel supplemented in DMEM with 10% FBS. Cysts were allowed to form for 10 days before subsequent studies.
# Mouse LOX cDNA was purchased from OriGene. Full length LOX cDNA was then PCR cloned into pEGFP-N1 (Clonetech), or biosensor vector proGFP2—N1 (Hanson, 2004) using the following primers, […] (forward primer) and […] (reverse primer). For the insertion into pEGFP-N1 or proGFP2—N1, Nhel and Xhol restriction sites were added to forward and reverse primers accordingly. Mutant LOX constructs were made using QuickChange II site-directed mutagenesis kit (Agilent Technologies) following manufacture's protocol using LOX-GFP as template. To generate, roGFP2 versions of LOX mutant constructs, LOX mutant cDNA was transferred from pEGFP-N1 to proGFP2—N1 using Nhel and Xhol.
# All photomicrographs were taken with a Leica TCS SP8 X confocal system. For LOX biosensor imaging, live MDCK cysts were used. The oxidised biosensor was excited using a 405 nm laser, while the reduced biosensor was excited with a 488 nm laser. Emission of the biosensor was recorded at 500 nm-530 nm range using sequential scans. Ratio images were generated following a published protocol {Kardash, 2011 #376}. Note, while the published protocol generates YFP/CFP ratio images, we used it to generate Oxidised/Reduced (roGFP2 ratio) ratio images. The roGFP2 ratio at the basal surface of MDCK cysts was used to indicate LOX inhibition. LOX inhibitors were added 30 min prior to imaging.
# For clarity, readout for DMSO treated cysts represents 0% inhibition (no inhibition) and readout for BAPN at 1 mM is used as 100% inhibition (full inhibition).
# [3] = LOX, 10 uM, DMSO = 0%, BAPN 1 mM = 100% inhibition, inhibitor added 30 min prior to imaging
Compound,IC50 [1] [µM],IC50 [2] [µM],inhibition at 10 µM (LOX; [3]) [%],inhibition at 10 µM (LOX; LOX) [%],"inhibition at 2.5 µM (LOX; LOX, 2.5 uM (stated in cell), DMSO = 0%, BAPN 1 mM = 100% inhibition, read-out: Cyst LOX (% inhibition) @ 2.5 uM) [%]","IC50 (LOX; MDCK cysts, read-out: Cyst LOX IC50) [µM]"
"CCOc1ccc(N2C[C@@H]3C[C@H]2CN3CCS(=O)(=O)CCN)cc1 [Example 2, 2-((2-((1S,4S)-5-(4-ethoxyphenyl)-2,5-diazabicyclo[2.2.1]heptan-2-yl)ethyl)sulfonyl)-ethan-1-amine]",> 100,> 100,–,–,–,–
"CCOc1ccc(N2C[C@H]3CN(CCS(=O)(=O)CCN)C[C@@H]2C(C)(C)C3)cc1 [Example 1, 2-((2-((1R,5S)-6-(4-ethoxyphenyl)-9,9-dimethyl-3,6-diazabicyclo[3.2.2]nonan-3-yl)ethyl)sulfonyl)ethan-1-amine]",> 100,> 100,–,–,–,–
"CCOc1ccc(N2CC3CN(CCS(=O)(=O)CCN)CC3C2)cc1 (stereo not shown) [Example 4, 2-((2-(5-(4-ethoxyphenyl)hexahydropyrolo [3,4-c]pyrrol-2(1H)-yl)ethyl)sulfonyl)ethan-1-amine]",> 100,> 100,100,–,–,–
"CCOc1ccc(N2C[C@H]3CN(c4ccc(S(=O)(=O)CCN)cc4)C[C@@H]2C(C)(C)C3)cc1 [Example 33, 2-((4-((1R,5S)-6-(4-ethoxyphenyl)-9,9-dimethyl-3,6-diazabicyclo [3.2.2]nonan-3-yl)phenyl)sulfonyl)ethan-1-amine]",> 100,> 100,100,–,–,–
"CCOc1ccc(N2C[C@H]3CN(C(=O)NCCS(=O)(=O)CCN)C[C@@H]2C(C)(C)C3)cc1 [Example 38, (1S,5S)—N-(2-((2-aminoethyl)sulfonyl)ethyl)-6-(4-ethoxyphenyl)-9,9-dimethyl-3,6-diazabicyclo[3.2.2]nonane-3-carboxamide]",–,–,–,70,–,–
"CCOc1ccc(N2C[C@@H]3C[C@H]2CN3C(=O)C2(S(=O)(=O)CCN)CC2)cc1 [Example 42, (1-((2-Aminoethyl)sulfonyl)cyclopropyl)((1S,4S)-5-(4-ethoxyphenyl)-2,5-diazabicyclo[2.2.1]heptan-2-yl)methanone]",> 100,> 100,–,–,–,–
"NCCS(=O)(=O)CC(=O)N1CCN(c2ncccn2)CC1 [Example 12, 2-((2-Aminoethyl)-sulfonyl)-1-(4-(pyrimidin-2-yl)-piperazin-1-yl)ethan-1-one]",> 100,> 100,–,–,–,–
"CCOc1ccc(N2C[C@H]3CN(C(=O)CS(=O)(=O)CCN)C[C@@H]2C(C)(C)C3)cc1 [Example 7, 2-((2-aminoethyl)sulfonyl)-1-((1S,5S)-6-(4-ethoxyphenyl)-9,9-dimethyl-3,6-diazabicyclo[3.2.2]nonan-3-yl)ethan-1-one]",> 100,> 100,–,79,–,–
"Cc1ccc(S(=O)(=O)N2C[C@H]3CN(C(=O)CS(=O)(=O)CCN)C[C@H]3C2)cc1 [Example 11, 2-((2-aminoethyl)-sulfonyl)-1-(cis-5-tosylhexahydro-pyrrolo[3,4-c]pyrrol-2(1H)-yl)ethan-1-one]",> 100,> 100,–,–,–,–
"CCOc1ccc(N2C[C@@H]3C[C@H]2CN3C(=O)CS(=O)(=O)CCN)cc1 [Example 8, 2-((2-aminoethyl)-sulfonyl)-1-((1S,4S)-5-(4-ethoxyphenyl)-2,5-diazabicyclo-[2.2.1]heptan-2-yl)-ethan-1-one]",> 100,> 100,–,–,46,0.37
"CCOC(=O)CCC(C(=O)N1C[C@@H]2C[C@H]1CN2c1ccc(OCC)cc1)S(=O)(=O)CCN (stereo partly drawn) [Example 41, ethyl 4-((2-aminoethyl)sulfonyl)-5-((1S,4S)-5-(4-ethoxyphenyl)-2,5-diazabicyclo[2.2.1]heptan-2-yl)-5-oxopentanoate]",> 100,> 100,–,–,–,–
"NCCS(=O)(=O)CC(=O)N1CCN(c2ccccc2)CC1 [Example 13, 2-((2-Aminoethyl)-sulfonyl)-1-(4-phenylpiperazin-1-yl)ethan-1-one]",> 100,> 100,–,–,–,–
